Consider 9 compounds from patent US20210161976A1, “BACTERIA ENGINEERED TO TREAT DISEASES THAT BENEFIT FROM REDUCED GUT INFLAMMATION AND/OR TIGHTENED GUT MUCOSAL BARRIER” (Synlogic Operating Company, Inc., priority 2016, published 2021).

In data set [1] the test system is LPS-induced IFNγ secretion. In words: LPS-induction of IFNγ cell-based assay in human PBMCs (ELISA). How it is done: To assess the activity of the acetate-producing strain SYN2001 in vitro, we employed the LPS-induction of IFNγ cell-based assay. Frozen normal human PBMCs from two independent donors (Lot #'s A4956 and A4924) were plated in triplicate at 1×10^6 cells/mL in 96-well plates in complete media. The cells were then incubated for 15 minutes with media containing either a dilution series of synthetic acetate (40 mM-0.08 Mm), SYN2001 supernatant (30 mM-0.03 mM acetate concentrations based on LC-MS determination) or untreated (negative control). After the 15-minute incubation period, complete media containing LPS was added to the cells to a final concentration of 100 ng/mL and the cells were further incubated overnight under these conditions. The following day supernatants were harvested from each of the different conditions and the IFNγ levels assessed by ELISA. […] We noted that the absolute levels of IFNγ production in the SYN2001 experiments was higher than in the purified acetate experiments, likely due to residual additional LPS in the supernatants from the bacterially-derived acetate. Nonetheless, the IC50s observed for the two acetate sources were very similar.
(ELISA stands for enzyme-linked immunosorbent assay.)

Data set [2] concerns PnsrR-GFP reporter construct. Kind of data set: Nitric oxide inducible PnsrR-GFP reporter construct, fluorescence in plate reader. It is filed as cell-based, E. coli Nissle. The settings on record: DETA-NO, two-fold decreased inducer, 96-well, relative florescence units.
A further data set addresses T1, PXR (Mus musculus, UniProt O54915).
T1 sequence (O54915 1-431): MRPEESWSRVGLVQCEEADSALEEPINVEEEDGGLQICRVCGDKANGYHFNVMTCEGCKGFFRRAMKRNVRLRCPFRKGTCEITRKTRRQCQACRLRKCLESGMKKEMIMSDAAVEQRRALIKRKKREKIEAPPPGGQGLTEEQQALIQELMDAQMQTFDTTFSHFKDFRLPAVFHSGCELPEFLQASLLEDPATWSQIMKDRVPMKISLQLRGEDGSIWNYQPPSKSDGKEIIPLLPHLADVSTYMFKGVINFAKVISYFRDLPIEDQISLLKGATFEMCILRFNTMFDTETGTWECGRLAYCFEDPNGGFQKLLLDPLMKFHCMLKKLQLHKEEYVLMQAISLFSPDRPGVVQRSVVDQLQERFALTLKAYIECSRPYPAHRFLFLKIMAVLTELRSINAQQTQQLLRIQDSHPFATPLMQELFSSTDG
Conditions: in vivo; cited from earlier work.

Data set [3] relates to gut motility and inflammation. Conditions: rats, early phase of acute colitis; cited from earlier work.
Data set [4] deals with Ptet-GFP reporter construct. Kind of data set: ATC-inducible Ptet-GFP reporter construct, fluorescence in plate reader. The settings on record: two-fold decreased inducer, 96-well, relative florescence units.
Text: When induced by their cognate inducers, these constructs express GFP, which is detected by monitoring fluorescence in a plate reader at an excitation/emission of 395/509 nm, respectively.
These constructs, when induced by their cognate inducer, lead to high level expression of GFP, which is detected by monitoring fluorescence in a plate reader at an excitation/emission of 395/509 nm, respectively. […] Promoter activity is expressed as relative florescence units.
A further data set concerns neutrophils. The settings on record: cited from earlier work.
A further data set has as its system STAT3. In words: STAT3 activation in Colo205 cells by IL-22 containing supernatants. The data set is classed as cell-based. The settings on record: average of 5 experiments. As to the method:
To assess the biological activity of IL-22 produced by SYN3001 (IL-22 secreting strain), titrations of SYN3001 and SYN3000 (DOM mutant, non IL-22 secreting negative control strain) supernatants (starting at 150 ng/mL and titrated in 1:3 dilutions) were added to Colo205 cells and the activation of STAT3 was assessed. […] In contrast, SYN3000 had no effect on STAT3 activity.

Another data set has as its target T2, IL-22 (Homo sapiens, UniProt Q9GZX6).
T2 construct: IL-22 fused to a cleavable PhoA-secretion tag to mediate Sec-dependent secretion into the periplasm; PhoA secretion tag (21 amino acids) (N, cleaved yes); made in house; filtered culture supernatant
T2 sequence (Q9GZX6 34-179): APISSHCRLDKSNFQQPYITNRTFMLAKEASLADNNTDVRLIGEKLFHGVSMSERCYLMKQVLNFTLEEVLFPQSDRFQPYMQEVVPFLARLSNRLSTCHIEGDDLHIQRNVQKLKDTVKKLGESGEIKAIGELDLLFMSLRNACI
Kind of data set: Anti-IL-22 neutralizing antibody inhibition of STAT3 activation in Colo205 cells. The data set is classed as cell-based. The settings on record: IC50 of anti-IL-22 neutralizing antibody against STAT3 activation by the listed IL-22 source (3 ng/mL). As to the method:
To verify that the STAT3 activation elicited by supernatants from SYN3001 was indeed due to IL-22 signaling, Colo205 cells were stimulated with IL-22 supernatants derived from SYN3001 at 3 ng/mL in the presence of increasing concentrations of an anti-IL-22 neutralizing antibody. rLI-22 in the absence of the neutralizing antibody served as a positive control.

Data set [5] deals with HT-29 colon adenocarcinoma cells. Kind of data set: Cell viability assay in HT-29 cells (trypan blue, Cellometer K2). Conditions: 4 days, data not shown.

Like-named read-outs stand apart in the source and are kept apart here.

One may read the EC50 as the concentration giving half of the maximal effect. For `CC(=O)O` [Acetate (synthetic)], the EC50 in [1] (decrease of LPS-induced IFNγ, human PBMCs donor 1, LPS 100 ng/mL, acetate concentration, read-out: EC50-donor 1) stood at 3120 µM; in [1] (decrease of LPS-induced IFNγ, human PBMCs donor 2, LPS 100 ng/mL, acetate concentration, read-out: EC50-donor 2), 2180 µM.
With `NCCN(CCN)/[N+]([O-])=N/O` [NO, diethylenetriamine-nitric oxide adduct], the “induction of GFP expression” value in data set [2] was “able to induce the expression of GFP”.
As for `O=C(O)CCc1c[nH]c2ccccc12` [indole 3-propionic acid (IPA), indole 3-propionic acid], the PXR ligand entry at PXR was “ligand for PXR”.
On to `O=C(O)c1cc(=O)c2ccccc2[nH]1` [kynurenic acid], for which the “gut motility and inflammation” value in data set [3] is “decreased gut motility and inflammation”.
On to anhydrous tetracycline [ATC], for which the “induction of GFP expression” value in [4] is listed as “able to induce the expression of GFP”.
Consider `Nc1ccccc1C(=O)CC(N)C(=O)O` (stereo not shown) [Kynurenine], for which the apoptosis in neutrophils result in the data set on neutrophils is listed as “induce apoptosis”.
The term IC50 denotes the concentration at which inhibition is half-maximal. The low end stands for higher potency, the high end for lower potency. rIL-22: the “EC50” value in the data set on STAT3 is given as 1.56 ng/mL. For the same compound, the “IC50” value in the data set with IL-22 turned out to be 3.70 ng/mL.
Consider `CC(=O)O` [Acetate], for which the EC50 in [1] (human PBMC, donor 1, 3 experiments in triplicate, LPS 100 ng/mL, read-out: EC50 on LPS-induced IFNγ secretion, Donor 1) came out at 3120 µM; in data set [1] (human PBMC, donor 2, 3 experiments in triplicate, LPS 100 ng/mL, read-out: EC50 on LPS-induced IFNγ secretion, Donor 2), 2180 µM. Besides, the “LPS-induced secretion of IFNγ” value in data set [1] (primary human PBMC, two donors, FIG. 26G/26H) is given as “dose-dependent decrease”.
Regarding `CCCC(=O)O` [synthetic butyrate, butyrate], the “effect on cell viability” value in [5] is reported as “did not have any appreciable effect”.
